Experimental data taken from PubChem BioAssay (NCI).
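In this assay, cells in 96-well plates receive the compound at five concentrations for 48 hours. Endpoints are linearly interpolated between the surrounding concentrations. GI50 marks 50% less growth. TGI: concentration producing complete growth inhibition.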

How the values were obtained:
Assay in all cases: NCI-60 cell line screen, 48 h
786-0 renal = tested on: 786-0 renal
A498 renal = tested on: A498 renal
A549 NSCLC = tested on: A549 NSCLC
ACHN renal = tested on: ACHN renal
BT-549 breast = tested on: BT-549 breast
CAKI-1 renal = tested on: CAKI-1 renal
CCRF-CEM leukemia = tested on: CCRF-CEM leukemia
COLO 205 colon = tested on: COLO 205 colon
DU-145 prostate = tested on: DU-145 prostate
EKVX NSCLC = tested on: EKVX NSCLC
HCC-2998 colon = tested on: HCC-2998 colon
HCT-116 colon = tested on: HCT-116 colon
HCT-15 colon = tested on: HCT-15 colon
HL-60(TB) leukemia = tested on: HL-60(TB) leukemia
HOP-62 NSCLC = tested on: HOP-62 NSCLC
HOP-92 NSCLC = tested on: HOP-92 NSCLC
HS 578T breast = tested on: HS 578T breast
HT29 colon = tested on: HT29 colon
IGROV1 ovarian = tested on: IGROV1 ovarian
K-562 leukemia = tested on: K-562 leukemia
KM12 colon = tested on: KM12 colon
LOX IMVI melanoma = tested on: LOX IMVI melanoma
M14 melanoma = tested on: M14 melanoma
MALME-3M melanoma = tested on: MALME-3M melanoma
MCF7 breast = tested on: MCF7 breast
MDA-MB-231 breast = tested on: MDA-MB-231 breast
MDA-MB-435 = tested on: MDA-MB-435
MDA-MB-468 breast = tested on: MDA-MB-468 breast
MOLT-4 leukemia = tested on: MOLT-4 leukemia

O=C([Se]C1C=CCCC1)c1ccc(C(=O)[Se]C2C=CCCC2)s1 (stereo not drawn)
GI50 (786-0 renal): 2.02 µM | TGI (786-0 renal): 4.08 µM | GI50 (A498 renal): 2.47 µM | TGI (A498 renal): 7.29 µM | GI50 (A549 NSCLC): 3.09 µM | TGI (A549 NSCLC): 18.7 µM | GI50 (ACHN renal): 2.32 µM | TGI (ACHN renal): 5.58 µM | GI50 (BT-549 breast): 3.55 µM | TGI (BT-549 breast): 11.7 µM | GI50 (CAKI-1 renal): 2.93 µM | TGI (CAKI-1 renal): 10.2 µM | GI50 (CCRF-CEM leukemia): 2.68 µM | TGI (CCRF-CEM leukemia): 8.66 µM | GI50 (COLO 205 colon): 2.42 µM | TGI (COLO 205 colon): 7.25 µM | GI50 (DU-145 prostate): 3.48 µM | TGI (DU-145 prostate): 11.5 µM | GI50 (EKVX NSCLC): 2.01 µM | TGI (EKVX NSCLC): 4.7 µM | GI50 (HCC-2998 colon): 2.49 µM | TGI (HCC-2998 colon): 6.19 µM | GI50 (HCT-116 colon): 2.87 µM | TGI (HCT-116 colon): 8.75 µM | GI50 (HCT-15 colon): 3.1 µM | TGI (HCT-15 colon): 11.6 µM | GI50 (HL-60(TB) leukemia): 1.94 µM | TGI (HL-60(TB) leukemia): 4.81 µM | GI50 (HOP-62 NSCLC): 1.17 µM | TGI (HOP-62 NSCLC): 6.65 µM | GI50 (HOP-92 NSCLC): 2.85 µM | TGI (HOP-92 NSCLC): 11 µM | GI50 (HS 578T breast): 2.36 µM | TGI (HS 578T breast): 6.69 µM | GI50 (HT29 colon): 4.01 µM | TGI (HT29 colon): 25.7 µM | GI50 (IGROV1 ovarian): 1.81 µM | TGI (IGROV1 ovarian): 3.48 µM | GI50 (K-562 leukemia): 3.96 µM | TGI (K-562 leukemia): 49.7 µM | GI50 (KM12 colon): 2.76 µM | TGI (KM12 colon): 7.08 µM | GI50 (LOX IMVI melanoma): 2.71 µM | TGI (LOX IMVI melanoma): 8.88 µM | GI50 (M14 melanoma): 2.02 µM | TGI (M14 melanoma): 4.56 µM | GI50 (MALME-3M melanoma): 2.27 µM | TGI (MALME-3M melanoma): 5.52 µM | GI50 (MCF7 breast): 2.79 µM | TGI (MCF7 breast): 10.6 µM | GI50 (MDA-MB-231 breast): 2.02 µM | TGI (MDA-MB-231 breast): 4.16 µM | GI50 (MDA-MB-435): 6.42 µM | TGI (MDA-MB-435): 23.1 µM | GI50 (MDA-MB-468 breast): 2.13 µM | TGI (MDA-MB-468 breast): 5.18 µM | GI50 (MOLT-4 leukemia): 2.89 µM | TGI (MOLT-4 leukemia): 8.34 µM
